Test results reported in PMC9822280, “A Rapid and Sensitive Liquid Chromatography-Tandem Mass Spectrometry Bioanalytical Method for the Quantification of Encorafenib and Binimetinib as a First-Line Treatment for Advanced (Unresectable or Metastatic) Melanoma—Application to a Pharmacokinetic Study” (Molecules, 2022).
Like-named read-outs stand apart in the source and are kept apart here.

Assays:
[1] = Pharmacokinetic study in rats after oral administration of binimetinib and encorafenib; assay type: in vivo; conditions: male, Wistar, rat plasma, oral 3.8 mg/kg binimetinib and 20 mg/kg encorafenib, fasting; for AUC(0-t) / AUC(0-inf) / Cmax / MRT inf / half-life: mean ± SD; for AUC(0-t): read-out: AUC0-t (area under the curve up to the last sampling time); for AUC(0-inf): read-out: AUC0-∞ (area under the curve extrapolated to infinity); for Cmax: read-out: Cmax (maximum plasma concentration); for MRT inf: read-out: MRT0-∞ (mean residence time); for half-life: read-out: t1/2kel (half-life in elimination phase) (converted); for Tmax: read-out: Tmax (time taken to reach the maximum plasma concentration)
Method: The newly developed and validated LC-MS/MS assay was effectively applied to evaluate BNB and ENF in rat plasma for a pharmacokinetic study after oral administration of 3.8 mg/kg BNB and 20 mg/kg ENF for four healthy male Wistar rats under fasting conditions. […] The values acquired in the current investigation for BNB for t1/2kel and Cl/F parameters are consistent with in vivo BNB PK studies. Furthermore, the Tmax parameter for BNB is similar to that represented in a recently published paper.
Four healthy male Wistar rats (220–250 g) were brought from the Animal Care Center of King Saud University (Saudia Arabia). All experimental procedures were reviewed in accordance with the guidelines of King Saud University Institutional Research Ethics Committee (REC) with an ethics reference number (SE-19–109). Rats were acclimatized for 7 days to laboratory environments before the experiment was directed. Diet was prohibited for 12 h before the experiment, but the water was freely available. The dose of drugs was determined according to the body surface area employing the below-mentioned formula [22]. Human dose (mg/kg) = Animal dose (mg/kg) × animal Km/Human Km
Km is a factor used in dose conversion. It is a ratio of average body weight (kg) and body surface area (m^2). Km values for the rat and human are 6 and 37, respectively. Human dose for BNB and ENF was considered as 90 and 450 mg, respectively.
Blood samples (300 μL) were collected into heparinized 1.5 mL polythene tubes containing ethylenediamine tetraacetic acid dipotassium (EDTA K2) (anticoagulant) before drug administration and at 0.15, 0.5, 1, 2, 4, 6, 8, 12, 18, and 24 h after oral administration of binimetinib (3.8 mg/kg) and encorafenib (20 mg/kg). In the current study, both drugs were dissolved in 1% DMSO/saline. The samples were directly centrifuged at 3500 rpm for 10 min at 4 °C. The plasma obtained was stored at −80 °C until analysis. The same method of extraction described under calibration standards preparation (2.4.) was used for sample preparation. The PK parameters of BNB and ENF such as Cmax, Tmax, t1/2kel, AUC0–24, and AUC0–∞ were calculated by fitting the data to a non-compartmental analysis (NCA) model with PK Solver Add-In software.

[2] = Stability of binimetinib and encorafenib in rat plasma under different storage conditions; assay type: in vitro ADME; conditions: for recovery at 24 h, 2400 ng/mL / recovery at 2400 ng/mL / recovery at 30 days, 2400 ng/mL: HQC 2400 ng/mL; for recovery at 2400 ng/mL / recovery at 1.5 ng/mL / recovery at 1800 ng/mL: n 3, read-out: Freeze and Thaw Stability at −80 °C (3 Cycles), Recovery (%); for recovery at 30 days, 2400 ng/mL / recovery at 30 days, 1.5 ng/mL / recovery at 30 days, 1800 ng/mL: n 3, read-out: Long Term Stability at −80 °C (30 Days), Recovery (%); for recovery at 24 h, 1.5 ng/mL / recovery at 1.5 ng/mL / recovery at 30 days, 1.5 ng/mL: LQC 1.5 ng/mL; for recovery at 24 h, 1800 ng/mL / recovery at 1800 ng/mL / recovery at 30 days, 1800 ng/mL: MQC 1800 ng/mL
Method: An important process of bioanalytical method validation is stability assessment. Stability of BNB and ENF was studied throughout the analysis of three QC samples (LQC, MQC and HQC) of each drug after the application of the different storage conditions. The different parameters investigated include short-term stability at room temperature for 24 h, autosampler stability at 10 °C for 24 h, three freeze and thaw cycles after storing at −80 °C, and long-term stability at −80 °C for 30 days. The results of stability experiments were satisfactory and complied with the accuracy criteria of ±15% of its theoretical concentration.
The stability of ENF and BNB was assessed after exposing the QC samples at LQC, MQC, and HQC to different storage conditions (temperature and time). The applied conditions include short-term stability at room temperature for 24 h in an autosampler for 24 h at 10 °C. Long-term stability was assessed after storing QCs for 30 days at −80 °C. Freeze and thaw stability were evaluated after three freezing and thawing cycles and compared with freshly prepared QCs. Moreover, the stock solution stability for ENF and BNB and IS was studied at a temperature of 5 ± 2 °C. All sample accuracies should be ± 15% to be considered stable.

[3] = n 3, read-out: Autosampler Stability at 10 °C (24 h), Recovery (%)
[4] = n 3, read-out: Short Term Stability at Room Temperature (24 h), Recovery (%)

| AUC(0-t) [1] | AUC(0-inf) [1] | Cmax [1] | MRT inf [1] | half-life [1] | Tmax [1] | recovery at 24 h, 2400 ng/mL [2, 3] | recovery at 2400 ng/mL [2] | recovery at 30 days, 2400 ng/mL [2] | recovery at 24 h, 2400 ng/mL [2, 4] | recovery at 24 h, 1.5 ng/mL [2, 3] | recovery at 1.5 ng/mL [2] | recovery at 30 days, 1.5 ng/mL [2] | recovery at 24 h, 1.5 ng/mL [2, 4] | recovery at 24 h, 1800 ng/mL [2, 3] | recovery at 1800 ng/mL [2] | recovery at 30 days, 1800 ng/mL [2] | recovery at 24 h, 1800 ng/mL [2, 4] | SMILES |
| --- | --- | --- | --- | --- | --- | --- | --- | --- | --- | --- | --- | --- | --- | --- | --- | --- | --- | --- |
| 30300 ± 3010 ng·h/mL | 36500 ± 3920 ng·h/mL | 16400 ± 1470 ng/mL | 3.23 ± 0.4 h | 2.48 ± 0.24 h | 1 h | 92.4% | 96.5% | 94.6% | 94.5% | 96.6% | 99.5% | 97.5% | 95.2% | 99.8% | 96.8% | 102% | 103% | COC(=O)N[C@@H](C)CNc1nccc(-c2cn(C(C)C)nc2-c2cc(Cl)cc(NS(C)(=O)=O)c2F)n1 [Encorafenib, encorafenib] |
| 12400 ± 1860 ng·h/mL | 18200 ± 1310 ng·h/mL | 3430 ± 460 ng/mL | 4.5 ± 0.28 h | 3.39 ± 0.43 h | 1 h | 95.4% | 95.2% | 94.8% | 93.4% | 97.3% | 104% | 95.5% | 96.2% | 104% | 104% | 104% | 103% | Cn1cnc2c(F)c(Nc3ccc(Br)cc3F)c(C(=O)NOCCO)cc21 [Binimetinib, binimetinib] |
